Assay results published in BindingDB's records for doi:10.1016/s0960-894x(00)00402-9 (Pharmacia, 2000).

The compounds below were run against DNA polymerase catalytic subunit (Human cytomegalovirus) (UniProt P08546) (assay: Inhibitory activity against Human Cytomegalovirus (HCMV) polymerase).
DNA polymerase catalytic subunit (Human cytomegalovirus), sequence (P08546 whole entry, looked up): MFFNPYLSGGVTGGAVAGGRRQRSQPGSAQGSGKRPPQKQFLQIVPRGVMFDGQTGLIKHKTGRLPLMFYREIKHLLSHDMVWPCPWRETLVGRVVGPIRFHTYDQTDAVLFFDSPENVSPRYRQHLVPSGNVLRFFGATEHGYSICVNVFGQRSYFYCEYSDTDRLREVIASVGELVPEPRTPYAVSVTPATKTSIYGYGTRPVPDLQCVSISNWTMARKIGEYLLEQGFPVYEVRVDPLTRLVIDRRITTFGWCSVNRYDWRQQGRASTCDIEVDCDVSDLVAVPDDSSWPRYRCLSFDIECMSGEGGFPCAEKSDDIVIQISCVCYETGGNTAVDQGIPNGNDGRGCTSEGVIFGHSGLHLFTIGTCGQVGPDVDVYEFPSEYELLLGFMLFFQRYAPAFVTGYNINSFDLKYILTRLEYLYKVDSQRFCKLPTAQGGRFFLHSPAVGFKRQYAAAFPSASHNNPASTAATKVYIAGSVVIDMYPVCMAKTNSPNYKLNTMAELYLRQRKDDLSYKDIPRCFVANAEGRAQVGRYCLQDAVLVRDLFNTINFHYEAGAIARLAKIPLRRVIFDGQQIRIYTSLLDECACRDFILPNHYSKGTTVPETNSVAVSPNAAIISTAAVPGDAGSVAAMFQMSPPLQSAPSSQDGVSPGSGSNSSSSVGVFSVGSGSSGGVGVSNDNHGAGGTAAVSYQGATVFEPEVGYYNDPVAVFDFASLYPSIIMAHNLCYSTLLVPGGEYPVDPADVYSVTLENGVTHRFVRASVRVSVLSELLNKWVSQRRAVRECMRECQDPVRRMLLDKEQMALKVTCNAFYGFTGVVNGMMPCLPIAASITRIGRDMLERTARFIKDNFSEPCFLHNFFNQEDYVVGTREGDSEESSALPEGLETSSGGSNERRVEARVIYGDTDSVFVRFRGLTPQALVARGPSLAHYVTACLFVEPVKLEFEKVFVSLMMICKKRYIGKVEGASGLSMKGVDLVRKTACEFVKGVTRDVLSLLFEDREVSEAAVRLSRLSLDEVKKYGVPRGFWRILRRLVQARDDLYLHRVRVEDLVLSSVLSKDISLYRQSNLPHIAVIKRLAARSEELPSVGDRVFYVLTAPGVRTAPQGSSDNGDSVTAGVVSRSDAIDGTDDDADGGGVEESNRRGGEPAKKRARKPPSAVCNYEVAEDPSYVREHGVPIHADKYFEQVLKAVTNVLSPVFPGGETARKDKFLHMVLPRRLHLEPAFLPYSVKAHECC

SMILES	IC50
COc1ccc(NC(=O)c2cc3ccccc3cc2O)cc1	56 µM
O=C(Nc1cccc([N+](=O)[O-])c1)c1cc2ccccc2cc1O	12 µM
O=C(NCc1ccc(Cl)cc1)c1ccc2ccccc2c1O [1-Hydroxy-naphthalene-2-carboxylic acid 4-chloro-benzylamide]	13 µM
O=C(NCc1ccc([N+](=O)[O-])cc1)c1ccc2ccccc2c1O [1-Hydroxy-naphthalene-2-carboxylic acid 4-nitro-benzylamide]	14.5 µM
O=C(Nc1ccc(Cl)cc1)c1ccc2ccccc2c1O [1-Hydroxy-naphthalene-2-carboxylic acid (4-chloro-phenyl)-amide]	37 µM
O=C(NCc1ccc(Cl)cc1)c1cc2cccc(O)c2cc1O [3,5-Dihydroxy-naphthalene-2-carboxylic acid 4-chloro-benzylamide]	3.3 µM
O=C(NCc1ccc([N+](=O)[O-])cc1)c1cc2cccc(O)c2cc1O [3,5-Dihydroxy-naphthalene-2-carboxylic acid 4-nitro-benzylamide]	3.8 µM
O=C(NCc1ccc(Cl)cc1)c1cc2cc(O)ccc2cc1O [3,7-Dihydroxy-naphthalene-2-carboxylic acid 4-chloro-benzylamide]	2.4 µM
O=C(NCc1ccc([N+](=O)[O-])cc1)c1cc2cc(O)ccc2cc1O [3,7-Dihydroxy-naphthalene-2-carboxylic acid 4-nitro-benzylamide]	10.6 µM
COc1ccc2cc(O)c(C(=O)NCc3ccc(Cl)cc3)cc2c1 [3-Hydroxy-7-methoxy-naphthalene-2-carboxylic acid 4-chloro-benzylamide]	0.76 µM
COc1ccc2cc(O)c(C(=O)NCc3ccc([N+](=O)[O-])cc3)cc2c1 [3-Hydroxy-7-methoxy-naphthalene-2-carboxylic acid 4-nitro-benzylamide]	0.82 µM
COc1ccc2cc(O)c(C(=O)Nc3nc4c(Cl)cccc4s3)cc2c1 [3-Hydroxy-7-methoxy-naphthalene-2-carboxylic acid (4-chloro-benzothiazol-2-yl)-amide]	6.4 µM
COc1ccc2cc(O)c(C(=O)Nc3ncc(Cl)s3)cc2c1 [3-Hydroxy-7-methoxy-naphthalene-2-carboxylic acid (5-chloro-thiazol-2-yl)-amide]	59 µM
COc1ccc2cc(O)c(C(=O)Nc3nc(-c4cccc([N+](=O)[O-])c4)cs3)cc2c1 [3-Hydroxy-7-methoxy-naphthalene-2-carboxylic acid [4-(3-nitro-phenyl)-thiazol-2-yl]-amide]	2.4 µM
COc1ccc2cc(O)c(C(=O)Nc3nc(-c4ccc(Cl)cc4)cs3)cc2c1 [3-Hydroxy-7-methoxy-naphthalene-2-carboxylic acid [4-(4-chloro-phenyl)-thiazol-2-yl]-amide]	6 µM
COc1ccc2cc(O)c(C(=O)Nc3nnc(Cc4ccc(Cl)cc4)s3)cc2c1 [3-Hydroxy-7-methoxy-naphthalene-2-carboxylic acid [5-(4-chloro-benzyl)-[1,3,4]thiadiazol-2-yl]-amide]	4 µM
O=C(NCc1ccc(Cl)cc1)c1cc2ccccc2cc1O [3-Hydroxy-naphthalene-2-carboxylic acid 4-chloro-benzylamide]	52 µM
O=C(NCc1ccc([N+](=O)[O-])cc1)c1cc2ccccc2cc1O [3-Hydroxy-naphthalene-2-carboxylic acid 4-nitro-benzylamide]	12 µM

SMILES	IC50
Nc1cccc(NC(=O)c2cc3ccccc3cc2O)c1 [3-Hydroxy-naphthalene-2-carboxylic acid (3-amino-phenyl)-amide]	> 100 µM
O=C(Nc1ccc(Br)cc1)c1cc2ccccc2cc1O [3-Hydroxy-naphthalene-2-carboxylic acid (4-bromo-phenyl)-amide]	22 µM
O=C(Nc1ccc(Cl)cc1)c1cc2ccccc2cc1O [3-Hydroxy-naphthalene-2-carboxylic acid (4-chloro-phenyl)-amide]	69 µM
N#Cc1ccc(NC(=O)c2cc3ccccc3cc2O)cc1 [3-Hydroxy-naphthalene-2-carboxylic acid (4-cyano-phenyl)-amide]	19 µM
O=C(Nc1ccc([N+](=O)[O-])cc1)c1cc2ccccc2cc1O [3-Hydroxy-naphthalene-2-carboxylic acid (4-nitro-phenyl)-amide]	22 µM
O=C(NCCc1ccc(Cl)cc1)c1cc2ccccc2cc1O [3-Hydroxy-naphthalene-2-carboxylic acid [2-(4-chloro-phenyl)-ethyl]-amide]	> 100 µM
O=C(NCCc1ccc([N+](=O)[O-])cc1)c1cc2ccccc2cc1O [3-Hydroxy-naphthalene-2-carboxylic acid [2-(4-nitro-phenyl)-ethyl]-amide]	> 100 µM
O=C(Nc1ccccc1)c1cc2ccccc2cc1O [3-Hydroxy-naphthalene-2-carboxylic acid phenylamide]	> 100 µM
O=C(Nc1ccccn1)c1cc2ccccc2cc1O [3-Hydroxy-naphthalene-2-carboxylic acid pyridin-2-ylamide]	> 100 µM
O=C(Nc1cccnc1)c1cc2ccccc2cc1O [3-Hydroxy-naphthalene-2-carboxylic acid pyridin-3-ylamide]	> 100 µM
COc1cc2ccccc2cc1C(=O)NCc1ccc(Cl)cc1 [3-Methoxy-naphthalene-2-carboxylic acid 4-chloro-benzylamide]	8 µM
COc1cc2ccccc2cc1C(=O)Nc1ccc([N+](=O)[O-])cc1 [3-Methoxy-naphthalene-2-carboxylic acid (4-nitro-phenyl)-amide]	> 100 µM
COCOc1cc2ccccc2cc1C(=O)Nc1ccc([N+](=O)[O-])cc1 [3-Methoxymethoxy-naphthalene-2-carboxylic acid (4-nitro-phenyl)-amide]	> 100 µM
COc1ccc2cc(O)c(CNCc3ccc(Cl)cc3)cc2c1 [3-[(4-Chloro-benzylamino)-methyl]-6-methoxy-naphthalen-2-ol]	> 100 µM
O=C(NCc1ccc([N+](=O)[O-])cc1)c1cc2cc(Br)ccc2c(Br)c1O [4,7-Dibromo-3-hydroxy-naphthalene-2-carboxylic acid 4-nitro-benzylamide]	2.9 µM
O=C(NCc1ccc(Cl)cc1)c1ccc2ccccc2c1 [Naphthalene-2-carboxylic acid 4-chloro-benzylamide]	> 100 µM
O=C(Nc1ccc([N+](=O)[O-])cc1)c1ccc2ccccc2c1 [Naphthalene-2-carboxylic acid (4-nitro-phenyl)-amide]	> 100 µM
